# Data: PubChem BioAssay (NCI)
#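 A five-concentration, 48-hour dose response in 96-well plates underlies each endpoint, interpolated linearly between surrounding concentrations. TGI marks complete inhibition of growth.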
# Columns and labels:
# Experiment in all cases: DTP human tumour cell line panel, 48 h
# [1] = test system: SK-OV-3 ovarian
# [2] = test system: COLO 205 colon
# [3] = test system: TK-10 renal
# [4] = test system: SF-295 CNS
# [5] = test system: SR leukemia
SMILES,TGI [1] [µM],TGI [2] [µM],TGI [3] [µM],TGI [4] [µM],TGI [5] [µM]
O=c1ccn(CC2(CO)CCCC2)c(=O)[nH]1,> 100,> 100,> 100,> 100,> 100
COc1cc2nc(Nc3cccc(Br)c3)nc(Nc3cccc(Br)c3)c2cc1OC,34.4,27.7,39.3,32.7,
CC(C)(C)n1c(=O)n2n(c1=O)Cc1cccc3cccc(c13)C2,93.3,72.3,> 100,54.2,42.3
CCN(CC)CCC(=O)c1ccc(Sc2ccc(F)cc2)cc1,45,41.9,27.9,35.1,48.6
C=CCc1[nH]c2c(OCc3ccccc3)cc(N(CC=C)C(C)=O)cc2c1C,31.9,30.1,30,33.5,
CCN(CC)C(=O)Cn1c(-c2ccccc2)cc2ccccc21,> 100,34,> 100,,> 100
COC(=O)CCC(C)[C@H]1CCC2C3C(C[C@H](OC(C)=O)[C@@]21C)[C@@]1(C)CCC2(C[C@H]1C[C@H]3OC(C)=O)OOC1(CCCC1)OO2 (stereo partly drawn),> 100,> 100,> 100,> 100,15.4
CC1(C)CC(=O)C(/C=N/C(N)=S)=C(O)C1,> 100,> 100,> 100,> 100,
COc1ccc(CC2C3=C(CCN2C(=O)C2CCC2)CC2(CC3)OCCO2)cc1O (stereo not drawn),88.1,48,> 100,45.5,> 100
CC(=O)C1C(=O)C(=O)N(c2ccccc2)C1=O (stereo not drawn),> 100,> 100,> 100,> 100,
Cn1c(NNc2ccccc2)cc(=O)[nH]c1=O,> 100,> 100,> 100,> 100,> 100
O=C1C(C(O)(C(F)(F)Cl)C(F)(F)Cl)CCCC1C(O)(C(F)(F)Cl)C(F)(F)Cl (stereo not drawn),> 10,> 10,> 10,> 10,
C1=NCCN2CCN(CCN=Cc3ccccc3OCc3cccc(n3)COc3ccccc31)CC2,> 50,> 50,24.9,14.1,15.4
COc1cc(=O)c2c(O)c3c(O)oc(C)cc3c(OC)c2c1,71.2,42.2,64.9,72.7,64.2
O=Cc1c2n(c3ccccc13)N[C@@](Cc1ccc(O)cc1)(C(=O)O)C2,> 100,> 100,> 100,> 100,> 100
CCCC(=O)Nc1cc(/C=C/C(=O)N2CC(CCl)c3c2cc(OCc2ccccc2)c2[nH]cc(C)c32)n(C)c1 (stereo not drawn),> 25,1.22,2.47,0.334,0.0722
Cc1cc(O)c2c(c1O)C(=O)c1cccc(O)c1C2=O,> 100,,> 100,> 100,
C=C1CCCC2[C@](C)(CC3=C(Cl)C(=O)C=C(OC)C3=O)C(C)CC[C@]12C (stereo partly drawn),46.5,9.76,11.6,14,13.6

SMILES,TGI [1] [µM],TGI [2] [µM],TGI [3] [µM],TGI [4] [µM],TGI [5] [µM]
CCN(CC)Cc1cc(Nc2c3ccccc3nc3c2[nH]c2ccccc23)cc(CN(CC)CC)c1O,17,1.74,11.7,2.88,
CCOc1ccc2nc3nc(=O)[nH]c(C)c3c(NCCCN(CC)CC)c2c1,> 100,> 100,> 100,> 100,
c1cnn(C23C4C5C6C4C2C6C53)c1 (stereo not drawn),> 100,> 100,> 100,> 100,> 100
CCCCCC1CC=CC(=O)O1 (stereo not drawn),36.9,16.7,38.1,35.6,31.6
Cc1c2ccnc(C(=O)NCCN(C)C)c2cc2c3cc(O)ccc3n(C)c12,1.65,4.01,9.05,3.37,< 0.0564
N#C[C@H](C(=O)c1ccccc1F)c1nc2ccccc2s1,> 100,53.8,> 100,77.2,
CC1=NN(c2nc(N)nc(CBr)n2)C(C)(C)C1,38.7,9.61,14.9,24.8,17.1
CCCC(=O)NC(Nc1cc(C)ccn1)(C(=O)OCC)C(F)(F)F (stereo not drawn),> 100,> 100,> 100,> 100,> 100
O=C(c1ccccc1)c1ccc(N2C(=O)/C(=C/Cc3ccco3)N=C2c2ccccc2)c(N2C(=O)/C(=C/Cc3ccco3)N=C2c2ccccc2)c1,83,> 100,> 100,> 100,> 100
COc1ccc(OC)c(CSc2ccc(OC)c(OC)c2)c1,> 100,> 100,> 100,> 100,> 100
O=C(Cn1cc(-c2ccccc2)nn1)NC1CCCCC1,,> 100,> 100,> 100,> 100
CCN1CCCC(C#N)(c2ccccc2)CC1 (stereo not drawn),> 100,> 100,> 100,> 100,> 100
CCOc1ccc(N/C(=C(/C(Cl)=C(/Cl)Nc2ccccc2)[N+](=O)[O-])n2nnc3ccccc32)cc1,> 100,50.6,> 100,> 100,
c1ccc2c(c1)NCCC(=NC1CCCCC1)N2,> 100,> 100,> 100,> 100,
NC(CSCc1ccc(I)cc1)C(=O)O (stereo not drawn),> 100,> 100,> 100,> 100,
C(/C=C/c1ccccc1)=Nc1ccc2c(c1)Cc1ccccc1-2,,,> 100,> 100,90.4
c1ccc2c(CN3CCN(Cc4c[nH]c5ccccc45)CC3)c[nH]c2c1,61.8,20.8,29.1,31.1,44.8
